Measured values taken from patent US9623123B2, “Fluorescent conjugated polymers with a bodipy-based backbone and uses thereof” (Michigan Technological University, priority 2008, dated 2017).

How the values were obtained:
[1] = Fluorescence lifetime measurement; type: physicochemical
Description: (§1) ^1H NMR and ^13C NMR spectra were taken on a 400 MHz Varian Unity Inova spectrophotometer instrument. ^1H and ^13C NMR spectra were recorded in CDCl3, and chemical shifts (5) are given in ppm relative to solvent peaks (at 7.24 ppm for ^1H spectra and at 77.3 for ^13C spectra) as internal standard. UV spectra were taken on a Hewlett-Packard 8452A Diode Array UV-visible spectrophotometer. Fluorescence spectra were recorded on a Spex Fluorolog 1681 0.22 m steady-state fluorometer. Fluorescence quantum yields of BODIPY dyes and polymers were measured in methylene chloride and calculated by using fluorescein excited at 490 nm in 0.1 N NaOH as the reference (its quantum efficiency of 85%). Fluorescence lifetimes were measured on a GL-3300 Nitrogen Laser laserstrobe PTI instrument and analyzed using FeliX32 software.
^1H NMR and ^13C NMR spectra were taken on a 400 MHz Varian Unity Inova spectrophotometer instrument. ^1H and ^13C NMR spectra were recorded in CDCl3, and chemical shifts (δ) are given in ppm relative to solvent peaks (^1H, δ 7.26; ^13C, δ 77.3) as internal standard. UV spectra were taken on a Hewlett-Packard 8452A Diode Array UV-visible spectrophotometer. Fluorescence spectra were recorded on a Spex Fluorolog 1681 0.22 m steady-state fluorometer. Fluorescence quantum yields of BODIPY dyes and polymers were measured in methylene chloride and calculated by using fluorescein exCIted at 490 nm in 0.1 N NaOH as the reference (quantum effiCIency, cPn=85%). Fluorescence lifetimes were measured on a 010-3300 Nitrogen Laser laserstrobe PTI instrument and analyzed using FeliX32 software. Molecular weights of the polymers were determined by gel permeation chromatography (OPC) by using a Waters AssoCIates model 6000A liquid chromatograph. Three American Polymer Standards Corp. ultrastyragel columns in series with porosity indices of 103, 104, and 105 A were used and housed in an oven thermostatted at 30° C. The mobile phase was HPLC grade THF which was filtered and degassed by vacuum filtration through a 0.5, urn fluoropore filter prior to use. The polymers were detected by a Waters Model 440 ultraviolet absorbance detector at a wavelength of 254 nm and a Waters Model 2410 refractive index detector. Molecular weights were determined relative to polystyrene standards.

[2] = UV-visible absorption and fluorescence spectra, fluorescence quantum yields in solution; type: physicochemical; conditions: for Quantum yield: methylene chloride solution
Description: ^1H NMR and ^13C NMR spectra were taken on a 400 MHz Varian Unity Inova spectrophotometer instrument. ^1H and ^13C NMR spectra were recorded in CDCl3, chemical shifts (δ) are given in ppm relative to solvent peaks (1H: δ 7.26; 13C: δ 77.3) as internal standard. UV spectra were taken on a Hewlett Packard 8452A Diode Array UV-visible spectrophotometer. Fluorescence spectra were recorded on a Spex Fluorolog 1681 0.22 m steady-state fluorometer. Fluorescence quantum yields of BODIPY dyes and polymers were measured in methylene chloride and DMF, and calculated by using fluorescein excited at 490 nm in 0.1 N NaOH as the reference absolute quantum efficiency (φn=85%). Molecular weights of the polymers were determined by gel permeation chromatography (“GPC”) by using a Waters Associates Model 6000A liquid chromatograph. Three American Polymer Standards Corp. Ultrastyragel columns in series with porosity indices of 10^3, 10^4, and 10^5 Å were used and housed in an oven thermostated at 30° C. Mobile phase was HPLC grade THF which was filtered and degassed by vacuum filtration through a 0.5 μm fluoropore filter prior to use. The polymers were detected by a Waters Model 440 ultraviolet absorbance detector at a wavelength of 254 nm and a Waters Model 2410 refractive index detector. Molecular weights were measured relative to polystyrene standards. An Enraf Nonius CAD-4 X-Ray diffractometer was used in the crystal structure determination. The windows program WinGX was used as the interface for the solution and refinement of the model. The data were first reduced and corrected for absorption using the psi-scans, and then solved using the program SIR2004. The model was refined using SHELXL97.
as §1
^1H NMR and ^13C NMR spectra were taken on a 400 MHz Varian Unity Inova spectrophotometer instrument. ^1H and ^13C NMR spectra were recorded in CDCl3, chemical shifts (δ) are given in ppm relative to solvent peaks (^1H: δ 7.26; ^13C: δ 77.3) as internal standard. UV spectra were taken on a Hewlett Packard 8452A Diode Array UV-visible spectrophotometer. Fluorescence spectra were recorded on a Spex Fluorolog 1681 0.22 m steady-state fluorometer. Fluorescence quantum yields of BODIPY dyes and polymers were measured in methylene chloride and DMF, and calculated by using fluorescein excited at 490 nm in 0.1 N NaOH as the reference quantum efficiency (φn=85%).^30,31 Molecular weights of the polymers were determined by gel permeation chromatography (GPC) by using a Waters Associates Model 6000A liquid chromatograph. Three American Polymer Standards Corp. Ultrastyragel columns in series with porosity indices of 10^3, 10^4, and 10^5 Å were used and housed in an oven thermostated at 30° C. Mobile phase was HPLC grade THF which was filtered and degassed by vacuum filtration through a 0.5 μm fluoropore filter prior to use. The polymers were detected by a Waters Model 440 ultraviolet absorbance detector at a wavelength of 254 nm and a Waters Model 2410 refractive index detector. Molecular weights were measured relative to polystyrene standards. […]

[3] = methylene chloride solution (Table 9, Example 13)
[4] = methylene chloride solution (Table 10, Example 14)
[5] = fluorescein standard (Table 10, Example 14)

SMILES | Fluorescence lifetime [1, 3] [ns] | Fluorescence lifetime [1, 4] [ns] | Absorption maxima [2, 3] [nm] | Emission maxima [2, 3] [nm] | Stokes shift [2, 3] [nm] | Absorption maxima [2, 4] [nm] | Emission maxima [2, 4] [nm] | Quantum yield [2, 5] [%] | Quantum yield ([2]; fluorescein standard (Table 9, Example 13)) [%]
CCCCCCCCCCCCOc1ccc(C2=C3C(C)=CC(C)=[N+]3[B-](F)(F)n3c(C)cc(C)c32)cc1 [Compound 3a] | 3.9 | 3.8 | 501 | 509 | 8 | 501 | 510 | 76 | 
CCCCCCCCCCCCOc1ccc(C2=C3C(C)=C(I)C(C)=[N+]3[B-](F)(F)n3c(C)c(I)c(C)c32)cc1 [Compound 4a] | 0.21 | 0.13 | 533 | 548 | 15 | 533 | 548 | 5.8 | 2.3
CCCCCCCCCCCCOc1ccc(C2=C3C(C)=C(C#C[Si](C)(C)C)C(C)=[N+]3[B-](F)(F)n3c(C)c(C#C[Si](C)(C)C)c(C)c32)cc1OCCCCCCCCCCCC [Compound 5b] | 4.6 | 5.2 | 555 |  | 15 | 554 | 570 | 79 | 
